# Source: patent US20020127263A1, “Peroxisome proliferator-acitvated receptor gamma ligand eluting medical device” (priority 2001, published 2002)
# Key:
# [1] = tested on: Human coronary smooth muscles cells (HCASMC); assay: HCASMC proliferation inhibition by Ciglitazone; assay type: cell-based; details: day four, both cell culture schemes, FIG. 1a
# Experimental: Human coronary smooth muscles cells (HCASMC) were seeded in 24 well polystyrene tissue culture plates at a density of 5×10^3 cells per well. Two different feeding and reading strategies were employed. Strategy 1: Cells were plated in cell culture media containing various concentrations of Ciglitazone and incubated at 37° C. for 48 hours. After the initial 48 hour incubation, the Ciglitazone containing plating media was changed and the cells were fed with drug free media and incubated for an additional 48 hours and then read. Strategy 2: Cells were plated in cell culture media containing various concentrations of Ciglitazone and incubated at […] for 48 hours. After the initial 48 hour incubation, the Ciglitazone-containing plating media was changed and the cells were fed with Ciglitazone-containing media and incubated for an additional 48 hours and then read. On day four cultures were analyzed to determine the proliferation inhibition effects of Ciglitazone. FIG. 1a graphically depicts the percent inhibition at Ciglitazone levels between 0.001 μg/mL to 50 μg/mL for both cell culture schemes. It can be seen from FIG. 1a that significant HCASMC inhibition (>50% inhibition) begins at a dosage of 10 μg/mL and rises dramatically to nearly 100% at 50 μg/mL. FIG. 1b graphically depicts the same results in bar graph form based on cell counts.
# [2] = tested on: HCASMCs; assay: Ciglitazone cytotoxicity against HCASMCs (lactate dehydrogenase); assay type: cell-based, Human; details: HCASMC, 0.001 μg/mL to 10 μg/mL Ciglitazone, after 24 hours, FIG. 1c
# Experimental: (§1) Ciglitazone cytotoxicity against HCASMCs was evaluated by seeding 24 well cell culture plates with 5.0×10^5HCASM cells/mL of cell culture media containing from 0.001 μg/mL to 10 μg/mL of Ciglitazone. Samples were taken after 24 hours and tested for lactate dehydrogenase […] concentration using methods known to those having ordinary skill in the art. Elevated LDL levels indicates cytotoxicity. FIG. 1c graphically depicts the cytotoxicity testing results.
# [3] = tested on: HCAECs; assay: Ciglitazone cytotoxicity against HCAECs (lactate dehydrogenase); assay type: cell-based, Human; details: HCAEC, 0.001 μg/mL to 10 μg/mL Ciglitazone, after 24 hours, FIG. 2c
# Experimental: as §1, with “HCAECs” for “HCASMCs”, “5.0×10^5 HCAE” for “5.0×10^5HCASM”, “indicate” for “indicates”, “2c” for “1c”
# [4] = tested on: Human coronary artery endothelial cells (HCAEC); assay: HCAEC proliferation inhibition by Ciglitazone; assay type: cell-based; details: Endothelial cell, day four, both cell culture schemes, FIG. 2a
# Experimental: Human coronary artery endothelial cells (HCAEC) were seeded in 24 well polystyrene tissue culture plates at a density of 5×10^3 cells per well. Two different feeding strategies and reading strategies were employed. Strategy 1: Cells were plated in cell culture media containing various concentrations of Ciglitazone and incubated at 37° C. for 48 hours. After the initial 48 hour incubation, the Ciglitazone containing plating media was changed and the cells were fed with drug free media and incubated for an additional 48 hours and then read. Strategy 2: Cells were plated in cell culture media containing various concentrations of Ciglitazone and incubated at […] for 48 hours. After the initial 48 hour incubation, the Ciglitazone-containing plating media was changed and the cells were fed with Ciglitazone-containing media and incubated for an additional 48 hours and then read. On day four cultures were analyzed to determine the proliferation inhibition effects of Ciglitazone. […] graphically depicts the percent inhibition at Ciglitazone levels between 0.001 μg/mL to 50 μg/mL for both cell culture schemes. It can be seen from FIG. 2a that significant HCAEC inhibition (>50% inhibition) begins at a dosage of 5 μg/mL and rises dramatically to nearly 100% at 10 μg/mL. FIG. 2b graphically depicts the same results in bar graph form based on cell counts.
smiles,measurement,setting,value
CC1(COc2ccc(CC3SC(=O)NC3=O)cc2)CCCCC1 (stereo not drawn) [Ciglitazone],inhibition at 10 µg/mL,[1]; 10 μg/mL Ciglitazone,> 50%
same,inhibition at 50 µg/mL,[1]; 50 μg/mL Ciglitazone,~100%
same,cytotoxicity (lactate dehydrogenase concentration),[2],No cytotoxicity was detected
same,cytotoxicity (lactate dehydrogenase concentration),[3],No cytotoxicity was detected
same,inhibition at 5 µg/mL,[4]; 5 μg/mL Ciglitazone,> 50%
same,inhibition at 10 µg/mL,[4]; 10 μg/mL Ciglitazone,~100%
